Data from PubChem BioAssay (NCI).
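These data come from cells grown in 96-well plates and exposed to compound for 48 hours at five concentrations. Here, GI50 denotes the concentration required for 50% inhibition of growth. TGI denotes the concentration required for complete inhibition of growth.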

What was measured:
Experiment in all cases: NCI-60 cell line screen, 48 h
A498 renal = system: A498 renal
ACHN renal = system: ACHN renal
HCC-2998 colon = system: HCC-2998 colon
HT29 colon = system: HT29 colon
PC-3 prostate = system: PC-3 prostate
RXF 393 renal = system: RXF 393 renal
SF-539 CNS = system: SF-539 CNS
SK-OV-3 ovarian = system: SK-OV-3 ovarian
TK-10 renal = system: TK-10 renal
UACC-62 melanoma = system: UACC-62 melanoma

Row | SMILES | GI50 (A498 renal) [µM] | TGI (A498 renal) [µM] | GI50 (ACHN renal) [µM] | TGI (ACHN renal) [µM] | GI50 (HCC-2998 colon) [µM] | TGI (HCC-2998 colon) [µM] | GI50 (HT29 colon) [µM] | TGI (HT29 colon) [µM] | GI50 (PC-3 prostate) [µM] | TGI (PC-3 prostate) [µM] | GI50 (RXF 393 renal) [µM] | TGI (RXF 393 renal) [µM] | GI50 (SF-539 CNS) [µM] | TGI (SF-539 CNS) [µM] | GI50 (SK-OV-3 ovarian) [µM] | TGI (SK-OV-3 ovarian) [µM] | GI50 (TK-10 renal) [µM] | TGI (TK-10 renal) [µM] | GI50 (UACC-62 melanoma) [µM] | TGI (UACC-62 melanoma) [µM]
1 | CC(=O)CC/C=C(\C)[C@H](O)[C@H](C)C(=O)O[C@H]1C[C@H](C)C=C2C=C[C@@]3(C)O[C@@H](O)CC(=O)[C@]3(C)[C@H]21 | 2.55 | 7.95 | 0.339 | 2 | 0.394 | 1.96 | 0.264 | 1.37 | 0.61 | 3.31 | 0.233 | 0.867 | 0.366 | 2.37 | 1.26 | 6.42 | 0.942 | 5.5 | 0.618 | 2.14
2 | CC1(C)N=C(N)N=C(N)N1c1ccc(OCCCNC(=O)Nc2cccc(S(=O)(=O)F)c2)c(Cl)c1 | 21.9 | > 100 | 15.7 | > 100 | 8.55 | > 100 | – | – | 1.23 | > 100 | 22.2 | > 100 | 4.78 | > 100 | 86.2 | > 100 | – | – | 1.43 | > 100
3 | CN(C)CCCSc1ccccc1NC1=C(Cl)C(=O)C(Nc2ccccc2SCCCN(C)C)=C(Cl)C1=O | 8.36 | 20.6 | – | – | 2.11 | 5.49 | 2.13 | 4.16 | 1.68 | 3.84 | 1.92 | 3.35 | 1.68 | 3.1 | 12.5 | 25 | 2.22 | 3.7 | 1.81 | 3.51
4 | COc1ccc(/C=C2\COc3ccc(O)c(O)c3C2=O)c(OC)c1OC | 5.54 | 20.8 | 1.78 | 3.96 | 2.18 | 4.48 | 3.1 | 13.8 | 2.35 | 61.8 | 1.87 | 3.54 | 2.4 | 6.87 | 3.24 | > 100 | 4.03 | 23.3 | 1.88 | 3.88
5 | Cc1cc(N2CCCCC2)nc(NC2CCCC(Nc3ccnc4cc(Cl)ccc34)C2)n1 (stereo unspecified) | 1.67 | 3.42 | 1.54 | 2.98 | 1.75 | 3.4 | – | – | 1.29 | 2.86 | 1.12 | 2.47 | – | – | 1.65 | 3.17 | 2.07 | 4.25 | – | –
6 | Cn1c2c(c3ccccc31)CCN(CCCCN1CCN(c3ccccc3)CC1)C2=O | – | > 100 | – | > 100 | – | 31.7 | – | 25.4 | – | 86.6 | – | 76.4 | – | > 100 | – | > 100 | – | > 90.4 | – | > 68.7
7 | CC1(C)N=C(N)N=C(N)N1c1ccc(Cl)cc1 | > 100 | > 100 | 9.55 | > 100 | 2.01 | 11.1 | 1.19 | > 100 | 6.07 | > 100 | 8.09 | > 100 | 1.94 | > 100 | 43 | > 100 | 9.9 | > 100 | 4.09 | > 100
8 | CC(C)(C)c1cc(/C=N/NC(=O)c2ccccc2NC(=O)c2cccs2)c(O)c(C(C)(C)C)c1 | 10.4 | 42.5 | 0.413 | 19.2 | 0.88 | 30.1 | 0.798 | > 100 | 2.8 | > 100 | 3.02 | 47.4 | 1.93 | 22.1 | 1.29 | > 100 | 0.994 | 18.1 | 0.39 | 14
9 | COc1ccc(C2CC(c3ccc(Nc4ccnc5cc(Cl)ccc45)cc3)=NN2C=O)cc1 (stereo unspecified) | > 100 | > 100 | 7.02 | > 100 | 18.1 | > 100 | 3.81 | > 100 | 9.43 | > 100 | 11.6 | > 100 | > 100 | > 100 | > 100 | > 100 | 20.9 | 48.2 | 5.99 | 49.8
10 | COc1cc(-c2nc3sc(C)cn3c2/C=C2\C(=O)Nc3ccccc32)c(Br)c(OC)c1OC | 29 | 63.5 | 32.1 | > 100 | 29 | 78 | 26.9 | 55.5 | 32.2 | > 100 | – | – | 19.2 | 38.3 | 28.9 | 73.8 | 32.9 | 77.5 | 34 | > 100
11 | CC(C)(C)CC(C)(C)c1ccc(O)c(Cc2ccc(Cl)cc2Cl)c1 | 1.33 | 2.61 | 1.68 | 3.05 | 1.79 | 3.25 | 1.67 | 3.03 | 1.54 | 2.88 | 1.16 | 2.41 | 1.84 | 3.36 | 1.5 | 2.82 | 1.54 | 2.87 | 1.7 | 3.07
12 | Cc1cnc2oc3ccc(O)cc3c2c1-c1ccccc1 | 21.5 | 70.5 | 18.8 | > 100 | – | – | > 100 | > 100 | 6.51 | > 100 | 18.5 | 67.3 | 16.1 | 37.5 | 25 | 86.9 | 20.3 | > 100 | 6.02 | 50.8
13 | O=C(c1ccccc1Cl)n1oc2ccccc2c1=O | – | > 100 | – | > 100 | – | – | – | > 100 | – | > 100 | – | > 100 | – | > 100 | – | > 100 | – | > 100 | – | > 100
14 | N#CC(C#N)=C1CCOc2ccc(F)cc21 | 23 | 49.9 | 13.3 | 26 | – | – | 64.2 | > 100 | 13.9 | 26.8 | 17.4 | 33.5 | 12.4 | 24.9 | 16.3 | 30.7 | 14.1 | 33.3 | 11.3 | 28.9
